Results taken from patent US20120244567A1, “HUMAN EMBRYONIC STEM CELLS FOR HIGH THROUGHOUT DRUG SCREENING” (BUCK INSTITUTE FOR RESEARCH ON AGING, priority 2009, published 2012).
Structures can show the parent of a compound that is named as a salt.

System: NSCs
Conditions: enriched in treated NSCs
Procedure: RNAs isolated from NSCs and neurons with and without drug treatments were hybridized to Illumina HumanRef-8 BeadChip (Illumina, Inc., San Diego, Calif., performed by Microarray core facility at the Burnham Institute for Medical Research). The Illumina array data were normalized by the quantile method, and then transformed log 2 ratio values for a zero mean for expression values of each gene across all samples. The statistical and bioinformatics analyses were conducted by using R and the bioconductor package (www.bioconductor.org). The gene set enrichment analysis was conducted using the GSEA software (www.broad.mit.edu/gsea).
The comparative results are then measured by a non-parametric, running sum statistic termed the enrichment score. The enrichment score significance is assessed by 1,000 permutation tests to compute the enrichment p-value.

CCCCc1oc2ccccc2c1C(=O)c1cc(I)c(OCCN(CC)CC)c(I)c1 [Amiodarone Hydrochloride]
Nes: Endopeptidase Activity: 1.466
Nes: Enzyme Binding: 0.9684
Nes: Enzyme Inhibitor Activity: 1.362
Nes: Enzyme Regulator Activity: 1.305
Nes: Exonuclease Activity: 1.423
Nes: Gated Channel Activity: 0.8726
Nes: General Rna Polymerase Ii Transcription Factor Activity: 0.772
Nes: Growth Factor Binding: 1.135
Nes: Gtpase Activator Activity: 1.186
Nes: Gtpase Binding: 0.9586
Nes: Gtpase Regulator Activity: 1.412
Nes: Guanyl Nucleotide Exchange Factor Activity: 1.287
Nes: Hematopoietin Interferon Class D200 Domain Cytokine Receptor Activity: 0.7947
Nes: Hormone Receptor Binding: 0.621
Nes: Hydro Lyase Activity: 0.5564
Nes: Hydrolase Activity Acting On Ester Bonds: 1.181
Nes: Hydrolase Activity Acting On Glycosyl Bonds: 1.049
Nes: Hydrolase Activity Hydrolyzing O Glycosyl Compounds: 1.219
Nes: Inorganic Cation Transmembrane Transporter Activity: 0.6802
Nes: Ion Channel Activity: 1.255
Nes: Ion Transmembrane Transporter Activity: 1.185
Nes: Isomerase Activity: 1.154
Nes: Kinase Binding: 0.6301
Nes: Ligase Activity: 0.4673
Nes: Ligase Activity Forming Carbon Nitrogen Bonds: 0.6937
Nes: Lyase Activity: 1.018
Nes: Metal Ion Transmembrane Transporter Activity: 1.036
Nes: Methyltransferase Activity: 0.9044
Nes: Molecular Adaptor Activity: 1.189
Nes: Monovalent Inorganic Cation Transmembrane Transporter Activity: 0.7857
Nes: Motor Activity: 1.105
Nes: Mrna Binding: 1.006
Nes: Nuclease Activity: 0.9393
Nes: Nucleotide Binding: 0.8932
Nes: Oxidoreductase Activity: 0.9865
Nes: Oxidoreductase Activity Acting On Ch Oh Group Of Donors: 0.8656
Nes: Oxidoreductase Activity Go 0016705: 1.545
Nes: Peptidase Activity: 1.4
Nes: Phosphatase Regulator Activity: 0.456
Nes: Phosphoprotein Phosphatase Activity: 1.51
Nes: Phosphoric Diester Hydrolase Activity: 1.244
Nes: Phosphoric Ester Hydrolase Activity: 1.31
Nes: Phosphoric Monoester Hydrolase Activity: 1.31
Nes: Protease Inhibitor Activity: 1.558
Nes: Protein C Terminus Binding: 0.6675
Nes: Protein Complex Binding: 1.312
Nes: Protein Domain Specific Binding: 0.8643
Nes: Protein Kinase Activity: 0.8772
Nes: Protein Kinase Binding: 0.7501
Nes: Protein Serine Threonine Kinase Activity: 0.8269
Nes: Protein Serine Threonine Phosphatase Activity: 0.4942
Nes: Protein Tyrosine Kinase Activity: 0.7818
Nes: Protein Tyrosine Phosphatase Activity: 1.461
Nes: Purine Nucleotide Binding: 0.8873
Nes: Purine Ribonucleotide Binding: 0.9034
Nes: Ras Gtpase Activator Activity: 0.9812
Nes: Receptor Signaling Protein Activity: 0.7803
Nes: Rho Gtpase Activator Activity: 0.9664
Nes: Ribonuclease Activity: 0.4876
Nes: Rna Splicing Factor Activity Transesterification Mechanism: 0.9542
Nes: S Adenosylmethionine Dependent Methyltransferase Activity: 0.9978
Nes: Secondary Active Transmembrane Transporter Activity: 1.221
Nes: Sequence Specific Dna Binding: 0.8244
Nes: Serine Hydrolase Activity: 1.672
Nes: Serine Type Peptidase Activity: 1.65
Nes: Sh3 Sh2 Adaptor Activity: 1.235
Nes: Single Stranded Dna Binding: 0.9015
Nes: Small Conjugating Protein Ligase Activity: 0.717
Nes: Small Gtpase Binding: 0.9179
Nes: Small Gtpase Regulator Activity: 1.109
Nes: Small Protein Conjugating Enzyme Activity: 0.7314
Nes: Specific Rna Polymerase Ii Transcription Factor Activity: 1.539
Nes: Structural Constituent Of Cytoskeleton: 1.041
Nes: Structural Constituent Of Muscle: 1.106
Nes: Structural Molecule Activity: 0.7432
Nes: Structure Specific Dna Binding: 0.7614
Nes: Substrate Specific Channel Activity: 1.3
Nes: Substrate Specific Transmembrane Transporter Activity: 1.04
Nes: Substrate Specific Transporter Activity: 0.9263
Nes: Transcription Activator Activity: 0.7812
Nes: Transcription Coactivator Activity: 0.5439
Nes: Transcription Cofactor Activity: 1.217
Nes: Transcription Corepressor Activity: 1.692
Nes: Transcription Factor Activity: 1.217
Nes: Transcription Factor Binding: 1.248
Nes: Transcription Repressor Activity: 1.653
Nes: Transferase Activity Transferring Alkyl Or Aryl Other Than Methyl Groups: 0.6606
Nes: Transferase Activity Transferring Glycosyl Groups: 0.6701
Nes: Transferase Activity Transferring Groups Other Than Amino Acyl Groups: 0.6753
Nes: Transferase Activity Transferring One Carbon Groups: 0.7951
Nes: Transferase Activity Transferring Sulfur Containing Groups: 0.8435
Nes: Transition Metal Ion Binding: 1.037
Nes: Translation Factor Activity Nucleic Acid Binding: 0.81
Nes: Translation Initiation Factor Activity: 0.4449
Nes: Translation Regulator Activity: 0.9216
Nes: Transmembrane Receptor Protein Kinase Activity: 0.7564
Nes: Transmembrane Receptor Protein Tyrosine Kinase Activity: 0.9533
Nes: Transmembrane Transporter Activity: 1.011
Nes: Ubiquitin Protein Ligase Activity: 0.7536
Nes: Zinc Ion Binding: 0.9797
